Values joined by “and” are separate entries in the source; they are usually repeats but may differ in a detail not shown here. Equal values may be shown once.
Key:
[1] = system: Akt and S6 phosphorylation; test: Western blot of PI3K pathway phosphorylation (Akt, S6) in cancer cells; type: cell-based
B cell function = B cell function in vivo, antibody production after TNP-Ficoll immunization; conditions: mice immunized with TNP-Ficoll; 70 mg/kg GDC0941; 30, 60 or 120 mg/kg Compound A; 7 days; FIG. 8
Procedure: Mice were immunized with TNP-Ficoll and treated with 1) vehicle; 2) 70 mg/kg GDC0941; 3) 30 mg/kg Compound A; 4) 60 mg/kg Compound A; or 5) 120 mg/kg Compound A for 7 days. Antibody production was measured as a percentage of control group that were treated with vehicle.

[2] = system: PI3K pathway in MDA-MB-361, MDA-MB-453 and SK-Br3 cells; test: PI3K pathway Western blot in cell lines with elevated PI3Kα activity; type: cell-based, human; conditions: 2 h treatment; MDA-MB-361, MDA-MB-453, SK-Br3
Procedure: Cells comprising one or more mutations in PI3Kα, including but not limited to breast cancer cells (e.g., MDA-MB-361, T47D, SKOV-3), and cells comprising one or more mutations in PTEN including but not limited to prostate cancer cells (e.g., PC3), are typically grown in cell growth media such as DMEM supplemented with fetal bovine serum and/or antibiotics, and grown to confluency. Cells are then treated with various concentrations of test compound for about 2 hours and subsequently lysed in cell lysis buffer. Lysates are subjected to SDS-PAGE followed by Western blot analysis to detect downstream signaling markers, including but not limited to pAKT(S473), pAKT(T308), pS6, and p4E-BP1.
MDA-MB-361(PIK3CA-E545K), MDA-MB-453 (PIK3CA-H1047R), and SK-Br3 (Her2) cells were treated with various concentrations of Compound A for 2 h and subsequently lysed. Lysates were subjected to SDS-PAGE followed by Western blot analysis as described above to detect downstream pathway markers.

[3] = system: MDA-MB-361 (PI3Kα/HER2 carcinoma) tumors; test: In vivo efficacy in xenogenic mouse model of breast cancer; design: species or system nude mice; conditions: 70 mg/kg Pan-PI3K inhibitor; 60 mg/kg compound A
Procedure: Blood glucose was monitored periodically following administration of treatment.
Treatment of tumors (MDA-MB-361) with compounds was discontinued on Day 30. Tumors were measured every 2-5 days.

MDA-MB-361 xenografts = test: Antitumor activity and tumor regrowth, MDA-MB-361 xenografts (Example 42); type: in vivo, Mus musculus
Procedure: (room temperature), shielded from light. The test article Compound A was prepared in 5% NMP+95% PEG400 every 5 to 7 days and stored at approximately 25° C. (room temperature), shielded from light. The control article used in this study was 5% NMP+95% PEG400. Compounds were completely dissolved in NMP by sonication, followed by the addition of an appropriate volume of PEG400, and the final solution was vortexed and sonicated to ensure thorough mixing.
Low-passage MDA-MB-361 cells were grown in Eagle's Minimal Essential Medium (EMEM) media supplemented with 20% fetal bovine serum (FBS) and 1× penicillin/streptomycin (Invitrogen, Carlsbad, Calif., USA) until approximately 80% confluency was reached. Before injection, the cells were detached with GIBCO® trypsin (Invitrogen), washed twice with phosphate-buffered saline (PBS), and resuspended in Roswell Park Memorial Institute (RPMI) media (Invitrogen) without supplements. Cells were resuspended to a final concentration of 5×10^7 cells/mL in RPMI media without supplements. […]
Female 5 to 6-week old female (athymic nu/nu) nude mice were inoculated SC in the flank with 5.0×10^6 MDA-MB-361 cells. Tumor growth was monitored with vernier calipers. The MTV was calculated using the formula V=W^2×L÷2. […] Tumor growth and body weight were measured twice weekly. Percent TGI and body weight change were calculated on Day 29. […] The remaining mice continued on study until Day 65, and tumor size and body weight in these mice were measured every 9 to 11 days.
Antitumor activity was determined by calculating the percent TGI using Equation 1: Percent TGI)=(MTV of the control group−MTV of a treated group)÷MTV of the control group×100
Tumor growth delay was determined by calculating the time until MTV in a given treatment group reached 1000 mm^3 versus the time until MTV in the control group reached 1000 mm^3.
The differences in trends of tumor growth over time between pairs of treatment groups were assessed using linear mixed-effects regression models. These models account for the fact that each animal was measured at multiple time points. […]

[4] = Steady-state blood glucose (Example 42); type: in vivo, Mus musculus; conditions: Compound B 0.3 mg/kg, Compound A 60 mg/kg, alone or combined; returned to normal within an hour of dosing
Procedure: Blood glucose levels were measured via a tail knick using a FreeStyle® handheld blood glucose monitor (Abbott Laboratories) at 5, 15, 30, 60, and 90 minutes after the last dose (Day 29).

Compound: Nc1nc2cc(-c3ccc4ncc(C(=O)N5CCOCC5)n4c3)ccc2o1 [Compound A]
- inhibition of Akt phosphorylation at serine 473 ([1]; FIG. 12A): inhibition of Akt phosphorylation at serine 473
- inhibition of the PI3K pathway in cell lines with elevated PI3K α activity ([1]; MDA-MB-361, MDA-MB-453, SKBr3 breast cancer cells, FIG. 11): inhibition of the PI3K pathway
- B cell function in vivo (antibody production, percentage of vehicle control) (B cell function): not
- inhibition of the PI3K pathway (Western blot, FIG. 11) [2]: inhibition of the PI3K pathway
- tumor weight in breast cancer model (FIG. 9 left panel) [3]: reduction in tumor weight
- %TGI (Day 29) (MDA-MB-361 xenografts; Compound B 0.3 mg/kg, Compound A 60 mg/kg, alone or combined, PO QD 30 days, Day 29): 77.4%
- MTV on Day 29 (MDA-MB-361 xenografts; Compound B 0.3 mg/kg, Compound A 60 mg/kg, alone or combined, PO QD, n = 8): 165 mm^3 and 165 ± 105.8 mm^3
- %TGI (Day 65) (MDA-MB-361 xenografts; based on the control group (n = 4) on Day 65): 69.5%
- steady-state blood glucose level after the last dose (Day 29) [4]: slight increase
